Reference: publication PMC11350868, “A Novel Bacitracin-like Peptide from Mangrove-Isolated Bacillus paralicheniformis NNS4-3 against MRSA and Its Genomic Insights” (Antibiotics, 2024)
Values after ≈ are worked out from the molar mass of the structure shown. Read-outs that look alike come from different tables or passages of the source. Non-standard residues stand in square brackets, D forms with d. No end group written: not given here. Orn = NCCC[C@H](N)C(=O)O

Tests used:
[1] = test system: Bacillus paralicheniformis NNS4-3; assay: Antibiotic susceptibility test of NNS4-3 (disc diffusion); assay type: cell-based; settings: disc diffusion on MH agar, 30 °C, 24 h, triplicate; result in words (Figure S1)
Description: The susceptibility of NNS4-3 to the standard antibiotics was studied by a disc diffusion assay. The isolate was inoculated at 30 °C with shaking at 150 rpm for 24 h in ZM broth. The culture was adjusted to 0.1 OD at 625 nm before being spread onto the MH agar. The antibiotic discs (Oxoid Ltd., Hampshire, UK) of ciprofloxacin (5 µg), piperacillin (100 µg) combined with tazobactam (10 µg), imipenem (10 µg), ceftriaxone (30 µg), cefoxitin (30 µg), doxycycline (30 µg), vancomycin (30 µg), erythromycin (15 µg), and gentamicin (10 µg) were placed on the culture-seeded agar and then incubated at 30 °C for 24 h. The susceptibility tests were conducted in triplicate. The inhibition zones were presented as mean ± SD.

S. aureus TISTR 517 [2] = assay: SEM of treated cells (morphological changes); assay type: cell-based, Staphylococcus aureus; settings: 1× MIC, 18 h incubation, 20,000× magnification
Description: (§1) The treatment effect of NNS4-3 AMP on tested bacterial cells was investigated by observing morphological changes under SEM. S. aureus TISTR 517 and MRSA strain 2468 were precultured in MH broth for 18 h before being centrifuged to harvest the cell pellet. Cell pellets of both strains were washed with 0.85% sterile NaCl solution 3 times to remove exopolysaccharide. The washed cells were then dispersed in CAMHB to adjust cell turbidity to 0.1 OD at 625 nm. The prepared cells were diluted to 5 × 10^5 CFU/mL with CAMHB before being treated with NNS4-3 AMP. […] The sample for SEM micrography was prepared by fixing the bacterial sample in 2.5% glutaraldehyde in 0.1 M phosphate buffer pH 7.2 for 24 h before ethanol dehydration of the sample. The complete ethanol removal from the prepared sample was conducted by a critical point drying machine (Quorum Technologies Ltd., Lewes, East Sussex, UK).

MRSA strain 2468 [3] = assay: SEM of treated cells (morphological changes); assay type: cell-based, Staphylococcus aureus; settings: 1× MIC, 18 h incubation, 20,000× magnification
Description: as §1

S. aureus TISTR 517 [4] = assay: Agar well diffusion assay; assay type: cell-based, Staphylococcus aureus; settings: 100 µL CFS of 3-day culture in 9 mm wells, controls 30 µg, MH agar, 37 °C, 18 h, mean ± SD, n = 3
Description: (§2) The active isolates from the agar overlay assay were inoculated in broth. The types of broth media were the same as those used during the initial isolation. The liquid cultures were incubated at 30 °C with shaking at 150 rpm for 18 h. The optical density of the starter culture was adjusted to a turbidity of 0.1 OD at 625 nm with 0.85% sterile NaCl solution before transferring 1 mL of the culture into 49 mL of fresh broth. The inoculum was then incubated at 30 °C and 150 rpm for 3 days. The cell-free supernatant (CFS) was collected by centrifugation at 10,000× g at 4 °C for 15 min and filtered using a 0.2 µm sterile cellulose acetate syringe filter (Sigma-Aldrich, Warren, MI, USA). The antibacterial activity of the isolates was studied using S. aureus TISTR 517, obtained from the Thailand Institute of Scientific and Technological Research (TISTR), Thailand. The three strains of MRSA (strains 142, 1096, and 2468) were kindly provided by the medical technology laboratory of the School of Allied Health Sciences, Walailak University, Thailand. The pathogenic bacteria were incubated at 37 °C for 18 h on MH agar. The microbial indicators were prepared to a turbidity equivalent to 0.1 OD at 625 nm before being spread on MH agar. The CFS of 100 µL was aseptically transferred to 9 mm diameter wells, followed by an incubation period at 37 °C for 18 h. Cefoxitin (30 µg) and vancomycin (30 µg) (Sigma-Aldrich Co., St. Louis, MO, USA) were employed as positive controls. The experiment was conducted in triplicate and the mean ± SD of the diameters of the inhibition zones was measured.
(§3) The sample was incubated at 30 °C with shaking at 150 rpm for 7 days. The OD at 625 nm of the inoculum was measured and the CFS was collected at 0, 4, 8, 12, 16, 20, and 24 h on the first day of incubation and then once a day until the seventh day of incubation. The bacterial growth was observed by measuring OD at 625 nm and the collected CFS at all time points was evaluated for antibacterial activity using the agar well diffusion assay against S. aureus TISTR 517 and three strains of MRSA. The experiment was performed in triplicate. […] The kinetics of the antimicrobial compounds’ production curve with mean ± SD were presented.

MRSA strain 1096 [5] = assay: Agar well diffusion assay; assay type: cell-based, Staphylococcus aureus; settings: 100 µL CFS of 3-day culture in 9 mm wells, controls 30 µg, MH agar, 37 °C, 18 h, mean ± SD, n = 3
Description: as §2, §3

MRSA strain 2468 [6] = assay: Agar well diffusion assay; assay type: cell-based, Staphylococcus aureus; settings: 100 µL CFS of 3-day culture in 9 mm wells, controls 30 µg, MH agar, 37 °C, 18 h, mean ± SD, n = 3
Description: as §2, §3

MRSA strain 142 [7] = assay: Agar well diffusion assay; assay type: cell-based, Staphylococcus aureus; settings: 100 µL CFS of 3-day culture in 9 mm wells, controls 30 µg, MH agar, 37 °C, 18 h, mean ± SD, n = 3
Description: as §2, §3

S. aureus TISTR 517 [8] = assay: microbe, parasite or virus in culture; assay type: cell-based, Staphylococcus aureus; settings: Staphylococcus aureus
Description: (§4) The MIC and MBC of the purified peptide of NNS4-3 were determined against various strains of S. aureus. The broth microdilution method followed the guidance provided by the Clinical and Laboratory Standards Institute (CLSI). Pathogenic bacteria, such as S. aureus TISTR 517 and MRSA strains 142, 1096, and 2468, were used as test strains and cultured on MH agar at 37 °C for 18 h. A single colony of each tested bacterium was suspended in 0.85% NaCl until its turbidity reached an OD of 0.1 at 625 nm (1 × 10^8 CFU/mL). The bacterial cells were diluted to 5 × 10^6 CFU/mL using cation-adjusted Mueller Hinton broth (CAMHB). The diluted cell suspension (10 µL) was transferred to each well of a 96-well plate. With a total volume of 100 µL in each well, the purified AMP was added to each well to obtain final concentrations between 0.125 and 64 µg/mL. Standard antibiotics (vancomycin and cefoxitin) and antibiotic-free samples were used as positive and negative controls, respectively. The 96-well plate was incubated at 37 °C for 24 h. The experiment was carried out in triplicate for each strain. […] Subsequently, 100 µL of each dilution was spread on MH agar and then incubated at 37 °C for 24 h. The MBC was identified as the lowest concentration at which no bacterial colony growth was observed on the plate.

MRSA strain 1096 [9] = assay: microbe, parasite or virus in culture; assay type: cell-based, Staphylococcus aureus; settings: Staphylococcus aureus, MRSA, 24 h
Description: as §4

MRSA strain 2468 [10] = assay: microbe, parasite or virus in culture; assay type: cell-based, Staphylococcus aureus; settings: Staphylococcus aureus, MRSA, 24 h
Description: as §4

MRSA strain 142 [11] = assay: microbe, parasite or virus in culture; assay type: cell-based, Staphylococcus aureus; settings: Staphylococcus aureus, MRSA, 24 h
Description: as §4

[12] = bacitracin from Bacillus paralicheniformis UBBLi30, ref [42], cited from earlier work
MRSA strain MW2 = settings: ref [41]; cited from earlier work
MSSA strain RN4420 = settings: ref [41]; cited from earlier work
Excerpt: The literature search could support the observed difference in MIC between MSSA and MRSA strains.

[13] = broth microdilution, CAMHB, 37 °C, 0.125-64 µg/mL, triplicate, read-out: MIC

## CNC(C)C1CCC(N)C(OC2C(N)CC(N)C(OC3OCC(C)(O)C(NC)C3O)C2O)O1 (stereo not shown) [gentamicin]
[1]
  antibiotic susceptibility of the NNS4-3 isolate: moderate to high susceptibility

## CO/N=C(\C(=O)N[C@@H]1C(=O)N2C(C(=O)O)=C(CSc3nc(=O)c(=O)[nH]n3C)CS[C@H]12)c1csc(N)n1 [ceftriaxone]
[1]
  antibiotic susceptibility of the NNS4-3 isolate: tolerated

## O=C(O)c1cn(C2CC2)c2cc(N3CCNCC3)c(F)cc2c1=O [ciprofloxacin]
[1]
  antibiotic susceptibility of the NNS4-3 isolate: high potency inhibition

## C[C@@H](O)[C@H]1C(=O)N2C(C(=O)O)=C(SCCN=CN)C[C@H]12 [imipenem]
[1]
  antibiotic susceptibility of the NNS4-3 isolate: high potency inhibition

## CO[C@@]1(NC(=O)Cc2cccs2)C(=O)N2C(C(=O)O)=C(COC(N)=O)CS[C@@H]21 [Cefoxitin]
[1]
  antibiotic susceptibility of the NNS4-3 isolate: moderate to high susceptibility
S. aureus TISTR 517 [2]
  morphological changes under SEM: cellular lysis
MRSA strain 2468 [3]
  morphological changes under SEM: good tolerance
S. aureus TISTR 517 [4]
  Zone of Inhibition: 35.87 ± 0.46 mm
MRSA strain 1096 [5]
  Zone of Inhibition: 0.00 ± 0.00 mm
MRSA strain 2468 [6]
  Zone of Inhibition: 0.00 ± 0.00 mm
MRSA strain 142 [7]
  Zone of Inhibition: 0.00 ± 0.00 mm
S. aureus TISTR 517 [8]; TISTR517, broth microdilution, CAMHB, 37 °C, 24 h, 0.125-64 µg/mL, triplicate, read-out: MIC
  MIC: 2 mg/L (≈ 4.68 µM)
S. aureus TISTR 517 [8]; TISTR517, plated on MH agar after MIC, 37 °C, 24 h, triplicate, read-out: MBC
  MBC: 2 mg/L (≈ 4.68 µM)
MRSA strain 1096 [9]; [13]
  MIC: > 64 mg/L
MRSA strain 2468 [10]; [13]
  MIC: > 64 mg/L
MRSA strain 142 [11]; [13]
  MIC: > 64 mg/L

## CC[C@H]1OC(=O)[C@H](C)[C@@H](O[C@H]2C[C@@](C)(OC)[C@@H](O)[C@H](C)O2)[C@H](C)[C@@H](O[C@@H]2O[C@H](C)C[C@H](N(C)C)[C@H]2O)[C@](C)(O)C[C@@H](C)C(=O)[C@H](C)[C@@H](O)[C@]1(C)O [erythromycin]
[1]
  antibiotic susceptibility of the NNS4-3 isolate: highest susceptibility

## CN[C@H](CC(C)C)C(=O)N[C@H]1C(=O)N[C@@H](CC(N)=O)C(=O)N[C@H]2C(=O)N[C@H]3C(=O)N[C@H](C(=O)N[C@H](C(=O)O)c4cc(O)cc(O)c4-c4cc3ccc4O)[C@H](O)c3ccc(c(Cl)c3)Oc3cc2cc(c3O[C@@H]2O[C@H](CO)[C@@H](O)[C@H](O)[C@H]2O[C@H]2C[C@](C)(N)[C@H](O)[C@H](C)O2)Oc2ccc(cc2Cl)[C@H]1O [Vancomycin]
[1]
  antibiotic susceptibility of the NNS4-3 isolate: moderate to high susceptibility
S. aureus TISTR 517 [2]
  morphological changes under SEM: cellular lysis
MRSA strain 2468 [3]
  morphological changes under SEM: irregular shape
S. aureus TISTR 517 [4]
  Zone of Inhibition: 23.37 ± 1.27 mm
MRSA strain 1096 [5]
  Zone of Inhibition: 24.38 ± 0.51 mm
MRSA strain 2468 [6]
  Zone of Inhibition: 24.64 ± 1.02 mm
MRSA strain 142 [7]
  Zone of Inhibition: 24.13 ± 1.27 mm
S. aureus TISTR 517 [8]; TISTR517, 24 h
  MBC: 2 mg/L (≈ 1.38 µM)
  MIC: 2 mg/L (≈ 1.38 µM)
MRSA strain 1096 [9]
  MBC: 2 mg/L (≈ 1.38 µM)
  MIC: 2 mg/L (≈ 1.38 µM)
MRSA strain 2468 [10]
  MBC: 2 mg/L (≈ 1.38 µM)
  MIC: 2 mg/L (≈ 1.38 µM)
MRSA strain 142 [11]
  MBC: 2 mg/L (≈ 1.38 µM)
  MIC: 2 mg/L (≈ 1.38 µM)

## C[C@H]1c2cccc(O)c2C(=O)C2=C(O)[C@]3(O)C(=O)C(C(N)=O)=C(O)[C@@H](N(C)C)[C@@H]3[C@@H](O)[C@@H]21 [doxycycline]
[1]
  antibiotic susceptibility of the NNS4-3 isolate: moderate to high susceptibility

## LCLEIK[Orn]IFHDN [bacitracin, AMP constructed by non-ribosomal peptide synthesis; literature values]
[12]; autoclaving for 15 min
  activity after autoclaving: 80%
[12]; pH 14, 1 h
  activity at pH 14: lost
MRSA strain MW2
  MIC: 32 mg/L
MSSA strain RN4420
  MIC: 64 mg/L
